Where two headings read alike, the source gives them in different places.
Key:
[1] = tested on: panel of human cancer cell lines derived from solid tumors; assay: MTT cytotoxicity, whole panel of human cancer cell lines; type: cell-based; details: mean over the cell lines of Table 2, 72 h
Method: (§1) The growth inhibitory effect towards 2D tumor cell lines was evaluated by means of MTT assay as previously described. IC50 values were calculated by four parameters logistic (4-PL) model. All the values are the means ± SD of not less than five measurements starting from three different cell cultures.
(§2) The in vitro antitumor activity of copper(II) complexes 1–3 and the uncoordinated ligands [HC(COOH)(pz^Me2)2], [HC(COOH)(pz)2] and [HC(COOH)(tz)2] was evaluated against a panel of human cancer cell lines derived from solid tumors. Adherent cell lines representative of cervical (A431), pancreatic (BxPC3) colon (HCT-15), breast (MCF-7), lung (A549), and ovarian (2008) cancers, differently sensitive to cisplatin, were exposed to the indicated compounds for 72 h.
(§3) HCT-15 colon cancer cells are notoriously poorly chemosensitive to cisplatin. […] As for cisplatin, the clinical effectiveness of OXP is seriously hampered by the cancer cell resistance and, at present, few other drug regimens are available for patients with OXP-refractory colorectal cancers. […] The RF values (calculated by dividing IC50 for resistant cells by those for sensitive ones) were about 10 times lower than that of OXP, excluding the occurrence of cross-resistance phenomena.

A549 = assay: MTT cytotoxicity assay, 2D monolayer; type: cell-based, human; details: 72 h, MTT test, lung carcinoma, read-out: IC50 (µM) ± S.D. A549
Description: (§4) Human lung (A549), colon (HCT-15 and LoVo) and breast (MCF-7) carcinoma cell lines were obtained from American Type Culture Collection (ATCC, Rockville, MD, USA). Human pancreatic BxPC3 carcinoma cells were obtained from European Collection of Cell Culture (ECACC, Salisbury, UK). Human ovarian 2008 cancer cells were kindly provided by Prof. G. Marverti (Dept. of Biomedical Science of Modena University, Modena, Italy). Human squamous cervical A431 carcinoma cells were kindly provided by Prof. F. Zunino (Division of Experimental Oncology B, Istituto Nazionale dei Tumori, Milan, Italy). The LoVo-OXP cells were obtained as previously described. Cell lines were maintained in culture in the logarithmic phase at 37 °C in a 5% carbon dioxide atmosphere using the following media added of 10% fetal calf serum (Euroclone, Milan, Italy), antibiotics (50 units/mL penicillin and 50 μg/mL streptomycin), and 2 mM L-glutamine: (i) RPMI-1640 medium (Euroclone) for HCT-15, A431, MCF-7, BxPC3 and 2008 cells; (ii) F-12 HAM’S (Sigma Chemical Co.) for A549, LoVo and LoVo-OXP cells.
as §1, §2

HCT-15 = assay: MTT cytotoxicity assay, 2D monolayer; type: cell-based, human; details: 72 h, MTT test, colon carcinoma, read-out: IC50 (µM) ± S.D. HCT-15
Description: as §4, §1, §2

2008 = assay: MTT cytotoxicity assay, 2D monolayer; type: cell-based, human; details: 72 h, MTT test, ovarian cancer, read-out: IC50 (µM) ± S.D. 2008
Description: as §4, §1, §2

A431 = assay: MTT cytotoxicity assay, 2D monolayer; type: cell-based, human; details: 72 h, MTT test, cervical carcinoma; read-out: IC50 (µM) ± S.D. A431
Description: as §4, §1, §2

MCF-7 = assay: MTT cytotoxicity assay, 2D monolayer; type: cell-based, human; details: 72 h, MTT test, breast carcinoma, read-out: IC50 (µM) ± S.D. MCF-7
Description: as §4, §1, §2

BxPC3 = assay: MTT cytotoxicity assay, 2D monolayer; type: cell-based, human; details: 72 h, MTT test, pancreatic carcinoma; read-out: IC50 (µM) ± S.D. BxPC3
Description: as §4, §1, §2

[2] = tested on: HCT-15 colon cancer cell spheroids; assay: Acid phosphatase (APH) assay in 3D spheroids; type: cell-based, human; details: 72 h, APH test, read-out: IC50 (µM) ± S.D. HCT-15 spheroids
Method: Spheroid cultures were obtained by seeding 2.5 × 10^3 HCT-15 cells/well in round bottom non-tissue culture treated 96 well-plate (Greiner Bio-one, Kremsmünster, Austria) in phenol red free RPMI-1640 medium (Sigma Chemical Co.), containing 10% FCS and supplemented with 20% methyl cellulose stock solution.
An APH modified assay was used for determining cell viability in 3D spheroids, as previously described. IC50 values were calculated with a four parameter logistic (4-PL) model. All the values are the means ± SD of not less than four independent experiments.
The in vitro antitumor efficacy of the newly developed compounds was also tested on 3D colon cancer cell culture models. Differently from 2D monolayer culture, 3D spheroid cell culture systems comprise cancer cells in various cell growth stages. Consequently, the multicellular cancer spheroid model is recognized to better reflect the tumor mass in vivo regarding drug permeation, cell interactions, gene expression, hypoxia and nutrient gradients with respect to monolayer cell cultures. Table 4 summarizes the IC50 values obtained after treatment of 3D cell spheroids of human HCT-15 colon cancer cells with copper(II) compounds as well as with cisplatin, as reference drug. In accordance with 2D chemosensitivity assays, complex 3 was scarcely effective, whereas complex 1 was as effective as cisplatin. […] We hypothesize that in this non-proliferative and very resistant tumor model the higher lipophilicity of 1, due to the presence of methyl substituents on the pyrazolyl rings, might be responsible for the enhanced compound penetration in the core area of spheroids.

LoVo = assay: MTT cytotoxicity assay, cross-resistance profile; type: cell-based, human; details: 72 h, MTT test, oxaliplatin-sensitive colon cancer cells; read-out: IC50 (µM) ± S.D. LoVo
Description: as §4, §1, §3

LoVo-OXP = assay: MTT cytotoxicity assay, cross-resistance profile; type: cell-based, human; details: for IC50: 72 h, MTT test, oxaliplatin-resistant colon cancer cells, read-out: IC50 (µM) ± S.D. LoVo-OXP; for RF (resistance factor): RF = IC50 (resistant cells)/IC50 (wild-type cells)
Description: as §4, §1, §3

Solubility = type: physicochemical
[3] = tested on: 26S proteasome, caspase-like (C-L) activity; assay: Proteasome inhibition, caspase-like (C-L) activity; type: biochemical; details: isolated 26S rabbit proteasomes, 15 μM, 60 min
Method: (§5) The purified rabbit 26S proteasome (Sigma Aldrich) was incubated for 60 min at 37 °C in assay buffer (50 mM Tris-HCl, pH 7.5, 250 mM sucrose, 5 mM MgCl2, 1 mM DTT, and 0.5 mM EDTA), in the presence of 15 µM of 1–3 or 10 µM Lactacystin. Afterwards, fluorogenic peptides were added and substrate hydrolysis was measured after 30 min by monitoring spectrofluorometrically the release of AMC (excitation at 370 nm, emission at 460 nm).
(§6) The ability of copper complexes to hamper the functioning of each individual proteasome active site, chymotrypsin-like (CT-L), trypsin-like (T-L), and caspase-like (C-L) activities was assessed in isolated 26S rabbit proteasomes after incubation with 15 μM of tested compounds. Lactacystin, an irreversible nonpeptidomimetic proteasome inhibitor, was used as a positive control. […] Conversely, no significant effects were recorded towards the T-L site. Even if the chymotrypsin-like sites are the major drug targets in cancer, it has been recently observed that co-targeting trypsin-like site increased cytotoxicity of copper complexes acting as proteasome inhibitors.

[4] = tested on: 26S proteasome, chymotrypsin-like (CT-L) activity; assay: Proteasome inhibition, chymotrypsin-like (CT-L) activity; type: biochemical; details: isolated 26S rabbit proteasomes, 15 μM, 60 min
Method: as §5, §6

Stability to air = type: physicochemical; details: also as solutions
LoVo cells = assay: Cellular uptake (intracellular copper by GF-AAS); type: cell-based, human; details: 24 h, 2 μM
Method: LoVo cells (2.5 × 10^6) were seeded in 75 cm^2 flasks in growth medium (20 mL). After overnight incubation, the medium was replaced, and the cells were treated with tested compounds for 24 h. Cell monolayers were then processed and mineralized as previously described. The sample was analyzed for copper by using a Varian AA Duo graphite furnace atomic absorption spectrometer (Varian, Palo Alto, CA, USA) at the wavelength of 324 nm. The calibration curve was obtained using known concentrations of standard solutions purchased from Sigma Chemical Co.
With the purpose of underling a possible correlation between cellular uptake efficiency and cytotoxicity, LoVo cells were treated for 24 h with equimolar concentrations (2 μM) of copper(II) complexes and the intracellular copper amount was quantified by means of Graphite Furnace Atomic Absorption Spectrometry (GF-AAS) analysis. […] In fact, the intracellular copper content detected in LoVo cells follows the same cytotoxicity trend 1 > 2 > 3.

SMILES | IC50 (A549) [µM] | IC50 (HCT-15) [µM] | IC50 2008 [µM] | IC50 (A431) [µM] | IC50 (MCF-7) [µM] | IC50 (BxPC3) [µM] | IC50 [2] [µM] | IC50 (LoVo) [µM] | IC50 (LoVo-OXP) [µM] | RF (resistance factor) (LoVo-OXP; LoVo-OXP/LoVo) | IC50 (A549; Homo sapiens, A549) [µM] | IC50 (HCT-15; Homo sapiens, HCT-15) [µM] | IC50 (2008; Homo sapiens) [µM] | IC50 (MCF-7; Homo sapiens, MCF7) [µM] | other results
N.N.[Cl][Pt][Cl] [Cisplatin, cisplatin, reference compound] | 7.5 ± 1.2 | 15.3 ± 2.2 | 2.2 ± 1 | 1.7 ± 0.5 | 8.8 ± 1.4 | 7.3 ± 1.2 | 65.9 ± 3.85 |  |  |  |  |  |  |  | IC50 [1]: 7.1 µM
O=C1[O][Pt]2([NH][C@@H]3CCCC[C@H]3[NH]2)[O]C1=O [Oxaliplatin, oxaliplatin, reference compound] |  |  |  |  |  |  |  | 1.4 ± 0.7 | 15.2 ± 2.2 | 10.9 |  |  |  |  | 
O=C(O)C(n1cccn1)n1cccn1 [[HC(COOH)(pz)2], bis(pyrazol-1-yl)acetic acid, reference compound] |  |  |  |  |  |  |  |  |  |  | > 100 | > 100 | > 100 | > 100 | 
Cc1cc(C)n(C(C(=O)O)n2nc(C)cc2C)n1 [[HC(COOH)(pz^Me2)2], bis(3,5-dimethylpyrazol-1-yl)acetic acid, reference compound] |  |  |  |  |  |  |  |  |  |  | > 100 | > 100 | > 100 | > 100 | 
O=C(O)C(n1cncn1)n1cncn1 [[HC(COOH)(tz)2], bis(1,2,4-triazol-1-yl)acetic acid, reference compound] |  |  |  |  |  |  |  |  |  |  | > 100 | > 100 | > 100 | > 100 | 
O=C(O)C(n1cccn1)n1cccn1.O=C(O)C(n1cccn1)n1cccn1.[Cu+2].[O-][Cl+3]([O-])([O-])[O-].[O-][Cl+3]([O-])([O-])[O-] [compound 2, [HC(COOH)(pz)2]2Cu(ClO4)2] | 5.5 ± 0.2 | 9.3 ± 2.7 | 7.9 ± 1.4 | 12.7 ± 1.2 | 10.2 ± 2.5 | 7.5 ± 1.2 | 107.8 ± 1 | 4 ± 0.5 | 4.9 ± 0.6 | 1.2 |  |  |  |  | solubility in methanol, DMSO and acetonitrile (Solubility; methanol, DMSO, acetonitrile): soluble; solubility in water (Solubility; water): soluble; effect on C-L proteasome activity [3]: able to affect CT-L and C-L activities, even if to a lesser extent than lactacystin; RF times lower than that of OXP (LoVo-OXP; LoVo-OXP/LoVo): about 10 times; IC50 [1]: 8.9 µM; effect on CT-L proteasome activity [4]: able to affect CT-L and C-L activities, even if to a lesser extent than lactacystin; air stability (Stability to air): air stable even as solutions
CO.O=C(O)C(n1cncn1)n1cncn1.O=C(O)C(n1cncn1)n1cncn1.[Cu+2].[O-][Cl+3]([O-])([O-])[O-].[O-][Cl+3]([O-])([O-])[O-] [compound 3, [HC(COOH)(tz)2]2Cu(ClO4)2·CH3OH] | 24.5 ± 1.9 | 59.5 ± 2.7 | 69.3 ± 4.7 | 15.9 ± 5.8 | 39.6 ± 4.6 | 18.5 ± 4.4 | > 100 | 15.3 ± 1 | 32.5 ± 1 | 2.1 |  |  |  |  | solubility in DMSO (Solubility; DMSO): soluble; effect on C-L proteasome activity [3]: able to affect CT-L and C-L activities, even if to a lesser extent than lactacystin; cellular uptake efficiency (intracellular copper amount) (LoVo cells): lowest cellular uptake efficiency; effect on CT-L proteasome activity [4]: able to affect CT-L and C-L activities, even if to a lesser extent than lactacystin; air stability (Stability to air): air stable even as solutions
